26 compounds from patent publication US9422293B2 (priority 2006, dated 2016) can be followed below.

The target in this experiment is rat TRPV1 (Rattus norvegicus (Rat), UniProt O35433). To be noted: read-out: Rat IC50.
rat TRPV1, sequence (O35433 whole entry): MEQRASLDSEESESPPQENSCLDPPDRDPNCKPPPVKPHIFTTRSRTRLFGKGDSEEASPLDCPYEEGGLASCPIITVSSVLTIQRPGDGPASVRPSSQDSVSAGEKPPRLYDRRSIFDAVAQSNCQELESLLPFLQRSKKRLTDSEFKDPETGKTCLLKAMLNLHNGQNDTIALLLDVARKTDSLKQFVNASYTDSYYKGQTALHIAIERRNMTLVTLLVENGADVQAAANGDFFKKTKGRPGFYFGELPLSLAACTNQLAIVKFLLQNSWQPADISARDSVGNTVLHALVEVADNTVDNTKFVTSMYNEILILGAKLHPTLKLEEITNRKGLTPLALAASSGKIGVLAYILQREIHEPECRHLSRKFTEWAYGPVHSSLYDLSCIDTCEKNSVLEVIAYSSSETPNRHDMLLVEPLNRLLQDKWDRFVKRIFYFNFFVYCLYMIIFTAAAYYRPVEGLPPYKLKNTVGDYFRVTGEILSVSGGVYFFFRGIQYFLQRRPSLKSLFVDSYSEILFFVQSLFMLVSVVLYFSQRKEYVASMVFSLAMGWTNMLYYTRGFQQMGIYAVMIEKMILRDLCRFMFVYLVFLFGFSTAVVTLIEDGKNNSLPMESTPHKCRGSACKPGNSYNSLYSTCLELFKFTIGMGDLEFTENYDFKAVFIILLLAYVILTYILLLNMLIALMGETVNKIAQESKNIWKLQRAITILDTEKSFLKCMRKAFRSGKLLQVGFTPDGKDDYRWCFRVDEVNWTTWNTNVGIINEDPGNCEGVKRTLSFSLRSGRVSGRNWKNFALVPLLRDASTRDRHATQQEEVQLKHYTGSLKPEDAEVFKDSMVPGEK
In general, IC50 refers to the concentration at which inhibition is half-maximal. Regarding `O=S(=O)(c1ccc(Nc2nc(OC3CCCCC3)nc3c2CCN(c2ncccc2C(F)(F)F)CC3)cc1)C(F)(F)F` [Example 308, 2-(Cyclohexyloxy)-7-[3-(trifluoromethyl)pyridin-2-yl]-N-{4-[(trifluoromethyl)sulfonyl]phenyl}-6,7,8,9-tetrahydro-5H-pyrimido[4,5-d]azepin-4-amine], the IC50 is 360 nM.
Next, `Cc1cc(C(F)(F)F)ccc1Nc1nc(OC(C)C2CCCCC2)nc2c1CCN(c1ncccc1C(F)(F)F)CC2` (centres unmarked) [Example 309, 2-[(1-Cyclohexylethyl)oxy]-N-[2-methyl-4-(trifluoromethyl)phenyl]-7-[3-(trifluoromethyl)pyridin-2-yl]-6,7,8,9-tetrahydro-5H-pyrimido[4,5-d]azepin-4-amine]: 1420 nM; `Cc1cc(C(F)(F)F)ccc1Nc1nc(OC2CCCC2)nc2c1CCN(c1ncccc1C(F)(F)F)CC2` [Example 310, 2-(Cyclopentyloxy)-N-[2-methyl-4-(trifluoromethyl)phenyl]-7-[3-(trifluoromethyl)pyridin-2-yl]-6,7,8,9-tetrahydro-5H-pyrimido[4,5-d]azepin-4-amine]: 70 nM; `CN1CCC(Oc2nc3c(c(Nc4ccc(C(F)(F)F)cc4)n2)CCN(c2ncccc2C(F)(F)F)CC3)CC1` [Example 311, 2-[(1-Methylpiperidin-4-yl)oxy]-N-[4-(trifluoromethyl)phenyl]-7-[3-(trifluoromethyl)pyridin-2-yl]-6,7,8,9-tetrahydro-5H-pyrimido[4,5-d]azepin-4-amine]: over 20000 nM.
Next, `Cc1cc(C(F)(F)F)ccc1Nc1nc(OC2CCOCC2)nc2c1CCN(c1ncccc1C(F)(F)F)CC2` [Example 312, N-[2-Methyl-4-(trifluoromethyl)phenyl]-2-(tetrahydro-2H-pyran-4-yloxy)-7-[3-(trifluoromethyl)pyridin-2-yl]-6,7,8,9-tetrahydro-5H-pyrimido[4,5-d]azepin-4-amine]: 450 nM.
Next, `Cc1cc(C(F)(F)F)ccc1Nc1nc(OC2CCOC2)nc2c1CCN(c1ncccc1C(F)(F)F)CC2` (centres unmarked) [Example 313, N-[2-Methyl-4-(trifluoromethyl)phenyl]-2-(tetrahydrofuran-3-yloxy)-7-[3-(trifluoromethyl)pyridin-2-yl]-6,7,8,9-tetrahydro-5H-pyrimido[4,5-d]azepin-4-amine]: 560 nM; `CC(C)N1CCC(Oc2nc3c(c(Nc4ccc(C(F)(F)F)cc4)n2)CCN(c2ncccc2C(F)(F)F)CC3)C1` (centres unmarked) [Example 315, 2-{[1-(1-Methylethyl)pyrrolidin-3-yl]oxy}-N-[4-(trifluoromethyl)phenyl]-7-[3-(trifluoromethyl)pyridin-2-yl]-6,7,8,9-tetrahydro-5H-pyrimido[4,5-d]azepin-4-amine]: 5520 nM.
On to `CC(Oc1nc2c(c(Nc3ccc4c(c3)N(C)CCC4)n1)CCN(c1ncccc1C(F)(F)F)CC2)C1CCCCC1` (centres unmarked) [Example 316, 2-[(1-Cyclohexylethyl)oxy]-N-(1-methyl-1,2,3,4-tetrahydroquinolin-7-yl)-7-[3-(trifluoromethyl)pyridin-2-yl]-6,7,8,9-tetrahydro-5H-pyrimido[4,5-d]azepin-4-amine], for which the IC50 was found to be 1180 nM.
As for `CC(Oc1nc2c(c(Nc3ccc(S(=O)(=O)C(F)(F)F)cc3)n1)CCN(c1ncccc1C(F)(F)F)CC2)C1CC1` (centres unmarked) [Example 317, 2-[(1-Cyclopropylethyl)oxy]-7-[3-(trifluoromethyl)pyridin-2-yl]-N-{4-[(trifluoromethyl)sulfonyl]phenyl}-6,7,8,9-tetrahydro-5H-pyrimido[4,5-d]azepin-4-amine], the figure is 610 nM.
As for `CC(Oc1nc2c(c(Nc3ccc(S(=O)(=O)C(F)(F)F)cc3)n1)CCN(c1ncccc1C(F)(F)F)CC2)C1CCCCC1` (centres unmarked) [Example 318, 2-[(1-Cyclohexylethyl)oxy]-7-[3-(trifluoromethyl)pyridin-2-yl]-N-{4-[(trifluoromethyl)sulfonyl]phenyl}-6,7,8,9-tetrahydro-5H-pyrimido[4,5-d]azepin-4-amine], the figure is over 6670 nM; as for `O=S(=O)(c1ccc(Nc2nc(OC3CCCC3)nc3c2CCN(c2ncccc2C(F)(F)F)CC3)cc1)C(F)(F)F` [Example 319, 2-(Cyclopentyloxy)-7-[3-(trifluoromethyl)pyridin-2-yl]-N-{4-[(trifluoromethyl)sulfonyl]phenyl}-6,7,8,9-tetrahydro-5H-pyrimido[4,5-d]azepin-4-amine], 240 nM.
Next, `CC(Oc1nc2c(c(Nc3ccc(S(=O)(=O)N4CCCC4)cc3)n1)CCN(c1ncccc1C(F)(F)F)CC2)C1CCCCC1` (stereo not drawn) [Example 320, 2-[(1-Cyclohexylethyl)oxy]l-N-[4-(pyrrolidin-1-ylsulfonyl)phenyl]-7-[3-(trifluoromethyl)pyridin-2-yl]-6,7,8,9-tetrahydro-5H-pyrimido[4,5-d]azepin-4-amine]: 20 nM; `O=S(=O)(c1ccc(Nc2nc(OC3CCOCC3)nc3c2CCN(c2ncccc2C(F)(F)F)CC3)cc1)C(F)(F)F` [Example 322, 2-(Tetrahydro-2H-pyran-4-yloxy)-7-[3-(trifluoromethyl)pyridin-2-yl]-N-{4-[(trifluoromethyl)sulfonyl]phenyl}-6,7,8,9-tetrahydro-5H-pyrimido[4,5-d]azepin-4-amine]: 10 nM.
For `CN1CCCc2ccc(Nc3nc(OC4CCOC4)nc4c3CCN(c3ncccc3C(F)(F)F)CC4)cc21` (centres unmarked) [Example 323, N-(1-Methyl-1,2,3,4-tetrahydroquinolin-7-yl)-2-(tetrahydrofuran-3-yloxy)-7-[3-(trifluoromethyl)pyridin-2-yl]-6,7,8,9-tetrahydro-5H-pyrimido[4,5-d]azepin-4-amine], the IC50 came to 670 nM.
As for `CN1CCCc2ccc(Nc3nc(OC4CCCC4)nc4c3CCN(c3ncccc3C(F)(F)F)CC4)cc21` [Example 324, 2-(Cyclopentyloxy)-N-(1-methyl-1,2,3,4-tetrahydroquinolin-7-yl)-7-[3-(trifluoromethyl)pyridin-2-yl]-6,7,8,9-tetrahydro-5H-pyrimido[4,5-d]azepin-4-amine], the figure is 100 nM; as for `Cc1cc(C(F)(F)F)ccc1Nc1nc(OC(C)C2CC2)nc2c1CCN(c1ncccc1C(F)(F)F)CC2` (centres unmarked) [Example 325, 2-[(1-Cyclopropylethyl)oxy]-N-[2-methyl-4-(trifluoromethyl)phenyl]-7-[3-(trifluoromethyl)pyridin-2-yl]-6,7,8,9-tetrahydro-5H-pyrimido[4,5-d]azepin-4-amine], 300 nM; as for `Cc1cc(C(F)(F)F)ccc1Nc1nc(OC2CCCCC2)nc2c1CCN(c1ncccc1C(F)(F)F)CC2` [Example 326, 2-(Cyclohexyloxy)-N-[2-methyl-4-(trifluoromethyl)phenyl]-7-[3-(trifluoromethyl)pyridin-2-yl]-6,7,8,9-tetrahydro-5H-pyrimido[4,5-d]azepin-4-amine], 600 nM.
As for `CCCCOc1nc2c(c(Nc3ccc(C(F)(F)F)nc3)n1)CCN(c1ncccc1C(F)(F)F)CC2` [Example 327, 2-(Butyloxy)-7-[3-(trifluoromethyl)pyridin-2-yl]-N-[6-(trifluoromethyl)pyridin-3-yl]-6,7,8,9-tetrahydro-5H-pyrimido[4,5-d]azepin-4-amine], the figure is 890 nM.
Regarding `CN1CCCc2ccc(Nc3nc(OC4CCCCC4)nc4c3CCN(c3ncccc3C(F)(F)F)CC4)cc21` [Example 328, 2-(Cyclohexyloxy)-N-(1-methyl-1,2,3,4-tetrahydroquinolin-7-yl)-7-[3-(trifluoromethyl)pyridin-2-yl]-6,7,8,9-tetrahydro-5H-pyrimido[4,5-d]azepin-4-amine], the IC50 was 250 nM.
As for `CN1CCCc2ccc(Nc3nc(OC4CCOCC4)nc4c3CCN(c3ncccc3C(F)(F)F)CC4)cc21` [Example 329, N-(1-Methyl-1,2,3,4-tetrahydroquinolin-7-yl)-2-(tetrahydro-2H-pyran-4-yloxy)-7-[3-(trifluoromethyl)pyridin-2-yl]-6,7,8,9-tetrahydro-5H-pyrimido[4,5-d]azepin-4-amine], the figure is 120 nM; as for `O=S(=O)(c1ccc(Nc2nc(OC3CCOC3)nc3c2CCN(c2ncccc2C(F)(F)F)CC3)cc1)C(F)(F)F` (centres unmarked) [Example 331, 2-(Tetrahydrofuran-3-yloxy)-7-[3-(trifluoromethyl)pyridin-2-yl]-N-{4-[(trifluoromethyl)sulfonyl]phenyl}-6,7,8,9-tetrahydro-5H-pyrimido[4,5-d]azepin-4-amine], 500 nM; as for `CC(Oc1nc2c(c(Nc3ccc(C(F)(F)F)cc3)n1)CCN(c1ncccc1C(F)(F)F)CC2)C1CCCCC1` (stereo not drawn) [Example 332, 2-[(1-Cyclohexylethyl)oxy]l-N-[4-(trifluoromethyl)phenyl]-7-[3-(trifluoromethyl)pyridin-2-yl]-6,7,8,9-tetrahydro-5H-pyrimido[4,5-d]azepin-4-amine], 2040 nM.
As for `O=S(=O)(c1ccc(Nc2nc(OC3CCCC3)nc3c2CCN(c2ncccc2C(F)(F)F)CC3)cc1)N1CCCC1` [Example 333, 2-(Cyclopentyloxy)-N-[4-(pyrrolidin-1-ylsulfonyl)phenyl]-7-[3-(trifluoromethyl)pyridin-2-yl]-6,7,8,9-tetrahydro-5H-pyrimido[4,5-d]azepin-4-amine], the figure is 40 nM; as for `O=S(=O)(c1ccc(Nc2nc(OC3CCOCC3)nc3c2CCN(c2ncccc2C(F)(F)F)CC3)cc1)N1CCCC1` [Example 335, N-[4-(Pyrrolidin-1-ylsulfonyl)phenyl]-2-(tetrahydro-2H-pyran-4-yloxy)-7-[3-(trifluoromethyl)pyridin-2-yl]-6,7,8,9-tetrahydro-5H-pyrimido[4,5-d]azepin-4-amine], 150 nM.
Next, `FC(F)(F)c1ccc(Nc2nc(OC3CCCCCC3)nc3c2CCN(c2ncccc2C(F)(F)F)CC3)cc1` [Example 336, 2-(Cycloheptyloxy)-N-[4-(trifluoromethyl)phenyl]-7-[3-(trifluoromethyl)pyridin-2-yl]-6,7,8,9-tetrahydro-5H-pyrimido[4,5-d]azepin-4-amine]: 1640 nM.
As for `FC(F)(F)c1ccc(Nc2nc(OC3CCCC3)nc3c2CCN(c2ncccc2C(F)(F)F)CC3)cc1` [Example 337, 2-(Cyclopentyloxy)-N-[4-(trifluoromethyl)phenyl]-7-[3-(trifluoromethyl)pyridin-2-yl]-6,7,8,9-tetrahydro-5H-pyrimido[4,5-d]azepin-4-amine], the IC50 is 170 nM.
